Source: patent US11000033B2, “Ketone or oxime compound, and herbicide” (NISSAN CHEMICAL CORPORATION, priority 2014, dated 2021)

What was measured:
Format in all cases: in vivo
Monochoria vaginalis [1] = assay: Test Example 1: herbicidal activity, application before weed generation in submerged conditions (symbol C); conditions: application herbicide amount 320 g/ha
Procedure, shortened: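 Weeds are sown into submerged alluvial soil alongside transplanted 2.5-leaf rice, and the compound, as an emulsion diluted to a set rate, is applied onto the water before emergence. Rating on the 0–5 herbicidal-ratio scale follows 3 weeks of greenhouse growth at 25–30 °C.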

[2] = test system: Echinochloa oryzacola Vasing.; assay: Test Example 2: herbicidal activity, application during weed generation in submerged conditions (symbol A); conditions: Table 23; application herbicide amount 320 g/ha; grade 0-5 by criteria of Test Example 1
Procedure, shortened: (§1)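 Steps: fill pots with alluvial soil; add water to 4 cm depth; co-sow the three weeds; grow at 25° C. to 30° C. under glass; at 1–2 leaves, dose the floodwater with diluted emulsion; rate damage visually after 3 weeks.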

Scirpus juncoides = assay: Test Example 2: herbicidal activity, application during weed generation in submerged conditions (symbol B); conditions: Table 23; application herbicide amount 320 g/ha; grade 0-5 by criteria of Test Example 1
Procedure, shortened: as §1

Monochoria vaginalis [3] = assay: Test Example 2: herbicidal activity, application during weed generation in submerged conditions (symbol C); conditions: Table 23; application herbicide amount 320 g/ha; grade 0-5 by criteria of Test Example 1
Procedure, shortened: as §1

Digitaria ciliaris = assay: Test Example 4: herbicidal effect by soil treatment (symbol F)
Procedure, shortened: (§2)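 Seeds were sown in sterilized diluvial soil, covered with about 1.5 cm of soil, and the soil surface was sprayed with a water-diluted emulsion of the compound at a predetermined rate. Plants grew in a greenhouse at 25° C. to 30° C.; effects were scored visually 3 weeks after application.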

[4] = test system: Echinochloa crus-galli var. crus-galli; assay: Test Example 4: herbicidal effect by soil treatment (symbol H)
Procedure, shortened: as §2

Avena fatua = assay: Test Example 4: herbicidal effect by soil treatment (symbol I)
Procedure, shortened: as §2

Apera spica-venti = assay: Test Example 4: herbicidal effect by soil treatment (symbol L)
Procedure, shortened: as §2

Abutilon theophrasti = assay: Test Example 4: herbicidal effect by soil treatment (symbol M)
Procedure, shortened: as §2

Chenopodium album = assay: Test Example 4: herbicidal effect by soil treatment (symbol O)
Procedure, shortened: as §2

corn [5] = assay: Test Example 4: effect on crop by soil treatment (symbol c); conditions: for c: corn, effect on crop grade: application herbicide amount 320 g/ha
Procedure, shortened: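 Steps: fill box with sterilized diluvial soil; sow seed spot-like; cover with ~1.5 cm soil; grow in greenhouse (25° C. to 30° C.).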

rapeseed = assay: Test Example 4: effect on crop by soil treatment (symbol g); conditions: for g: rapeseed, effect on crop grade: application herbicide amount 320 g/ha
Procedure, shortened: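 Grown at 25° C. to 30° C. in a greenhouse, the crops came from seed sown spot-wise in sterilized diluvial soil under roughly 1.5 cm of covering soil.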

Lolium multiflorum Lam. = assay: Test Example 5: herbicidal effect by foliage application, plastic box (symbol K); conditions: 320 g/ha, 3 weeks after application
Procedure, shortened: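 After sowing into sterilized diluvial soil and growing two weeks under glass at 25° C. to 30° C., seedlings receive a uniform foliar spray of diluted emulsion. Damage is judged visually three weeks on.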

corn [6] = assay: Test Example 5: effect on crop by foliage application, plastic box (symbol c); conditions: 320 g/ha, 3 weeks after application
Procedure, shortened: (§3)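 Box culture: sterile diluvial soil, seeds spot-sown, ~1.5 cm cover, raised under glass at 25–30° C.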

soybean = assay: Test Example 5: effect on crop by foliage application, plastic box (symbol d); conditions: 320 g/ha, 3 weeks after application
Procedure, shortened: as §3

rice plant = assay: Test Example 5: effect on crop by foliage application, plastic box (symbol b); conditions: 320 g/ha, 3 weeks after application
Procedure, shortened: as §3

[7] = application herbicide amount 320 g/ha

Row | Structure (SMILES) | Herbicidal effect grade, C: Monochoria vaginalis (Monochoria vaginalis [1]) | Herbicidal effect grade, A: Echinochloa oryzacola Vasing. [2] | Herbicidal effect grade, B: Scirpus juncoides (Scirpus juncoides) | Herbicidal effect grade, C: Monochoria vaginalis (Monochoria vaginalis [3]) | F: Digitaria ciliaris, herbicidal effect grade (Digitaria ciliaris; [7]) | H: Echinochloa crus-galli var. crus-galli, herbicidal effect grade [4, 7] | I: Avena fatua, herbicidal effect grade (Avena fatua; [7]) | L: Apera spica-venti, herbicidal effect grade (Apera spica-venti; [7]) | M: Abutilon theophrasti, herbicidal effect grade (Abutilon theophrasti; [7]) | O: Chenopodium album, herbicidal effect grade (Chenopodium album; [7]) | c: corn, effect on crop grade (corn [5]) | g: rapeseed, effect on crop grade (rapeseed) | K: Lolium multiflorum Lam., herbicidal effect grade (Lolium multiflorum Lam.) | c: corn, effect on crop grade (corn [6]) | d: soybean, effect on crop grade (soybean) | b: directly sowed rice plant, effect on crop grade (rice plant) | also measured
1 | CON=C(C)C1CC(O)=C(c2c(C)cc(C)cc2C)C1=O (mixture of isomers) [3-002] | 0 (Herbicidal ratio of 5% or lower (almost no effect)) | 0 (Herbicidal ratio of 5% or lower (almost no effect)) | 0 (Herbicidal ratio of 5% or lower (almost no effect)) | 0 (Herbicidal ratio of 5% or lower (almost no effect)) | 0 (Herbicidal ratio of 5% or lower (almost no effect)) | 0 (Herbicidal ratio of 5% or lower (almost no effect)) | 0 (Herbicidal ratio of 5% or lower (almost no effect)) | 0 (Herbicidal ratio of 5% or lower (almost no effect)) | 0 (Herbicidal ratio of 5% or lower (almost no effect)) | 0 (Herbicidal ratio of 5% or lower (almost no effect)) | 0 (Herbicidal ratio of 5% or lower (almost no effect)) | 0 (Herbicidal ratio of 5% or lower (almost no effect)) | 1 (Herbicidal ratio of 5% or higher and lower than 20%) | 0 (Herbicidal ratio of 5% or lower (almost no effect)) | 0 (Herbicidal ratio of 5% or lower (almost no effect)) | 3 (Herbicidal ratio of 40% or higher and lower than 70%) | 
2 | CC#Cc1cc(C)c(C2=C(O)CC(CC(C)=NOC)C2=O)c(CC)c1 (mixture of isomers) [6-006] | 1 (Herbicidal ratio of 5% or higher and lower than 20%) | 5 (Herbicidal ratio of 90% or more (almost completely withered)) | 5 (Herbicidal ratio of 90% or more (almost completely withered)) | 1 (Herbicidal ratio of 5% or higher and lower than 20%) | 5 (Herbicidal ratio of 90% or more (almost completely withered)) | 5 (Herbicidal ratio of 90% or more (almost completely withered)) | 4 (Herbicidal ratio of 70% or higher and lower than 90%) | 5 (Herbicidal ratio of 90% or more (almost completely withered)) | 4 (Herbicidal ratio of 70% or higher and lower than 90%) | 0 (Herbicidal ratio of 5% or lower (almost no effect)) | 5 (Herbicidal ratio of 90% or more (almost completely withered)) | 4 (Herbicidal ratio of 70% or higher and lower than 90%) | 4 (Herbicidal ratio of 70% or higher and lower than 90%) | 1 (Herbicidal ratio of 5% or higher and lower than 20%) | 0 (Herbicidal ratio of 5% or lower (almost no effect)) | 4 (Herbicidal ratio of 70% or higher and lower than 90%) | 
3 | COC(=O)C(C(C)=O)C1CC(O)=C(c2c(C)cc(C)cc2C)C1=O (centres unmarked) [2-003] | 0 (Herbicidal ratio of 5% or lower (almost no effect)) | 0 (Herbicidal ratio of 5% or lower (almost no effect)) | 0 (Herbicidal ratio of 5% or lower (almost no effect)) | 0 (Herbicidal ratio of 5% or lower (almost no effect)) |  |  |  |  |  |  |  |  | 5 (Herbicidal ratio of 90% or more (almost completely withered)) | 3 (Herbicidal ratio of 40% or higher and lower than 70%) | 0 (Herbicidal ratio of 5% or lower (almost no effect)) | 5 (Herbicidal ratio of 90% or more (almost completely withered)) | F: Digitaria ciliaris, herbicidal effect grade (Digitaria ciliaris; 320 g/ha): 4 (Herbicidal ratio of 70% or higher and lower than 90%); H: Echinochloa crus-galli var. crus-galli, herbicidal effect grade ([4]; 320 g/ha): 0 (Herbicidal ratio of 5% or lower (almost no effect)); I: Avena fatua, herbicidal effect grade (Avena fatua; 320 g/ha): 0 (Herbicidal ratio of 5% or lower (almost no effect)); L: Apera spica-venti, herbicidal effect grade (Apera spica-venti; 320 g/ha): 5 (Herbicidal ratio of 90% or more (almost completely withered)); M: Abutilon theophrasti, herbicidal effect grade (Abutilon theophrasti; 320 g/ha): 0 (Herbicidal ratio of 5% or lower (almost no effect)); O: Chenopodium album, herbicidal effect grade (Chenopodium album; 320 g/ha): 0 (Herbicidal ratio of 5% or lower (almost no effect)); c: corn, effect grade on crop (corn [5]; 320 g/ha): 0 (Herbicidal ratio of 5% or lower (almost no effect)); g: rapeseed, effect grade on crop (rapeseed; 320 g/ha): 0 (Herbicidal ratio of 5% or lower (almost no effect))
4 | CON=C(C)CC1CC(O)=C(c2c(C)cc(-c3cccc(Cl)c3)cc2C)C1=O (mixture of isomers) [6-034] | 4 (Herbicidal ratio of 70% or higher and lower than 90%) | 5 (Herbicidal ratio of 90% or more (almost completely withered)) | 5 (Herbicidal ratio of 90% or more (almost completely withered)) | 3 (Herbicidal ratio of 40% or higher and lower than 70%) | 5 (Herbicidal ratio of 90% or more (almost completely withered)) | 5 (Herbicidal ratio of 90% or more (almost completely withered)) | 1 (Herbicidal ratio of 5% or higher and lower than 20%) | 5 (Herbicidal ratio of 90% or more (almost completely withered)) | 1 (Herbicidal ratio of 5% or higher and lower than 20%) | 0 (Herbicidal ratio of 5% or lower (almost no effect)) | 1 (Herbicidal ratio of 5% or higher and lower than 20%) | 1 (Herbicidal ratio of 5% or higher and lower than 20%) | 4 (Herbicidal ratio of 70% or higher and lower than 90%) | 5 (Herbicidal ratio of 90% or more (almost completely withered)) | 0 (Herbicidal ratio of 5% or lower (almost no effect)) | 5 (Herbicidal ratio of 90% or more (almost completely withered)) | 
5 | CON=C(C)CC1CC(O)=C(c2c(C)cc(-c3ccccc3)cc2C)C1=O (centres unmarked) [6-015] | 5 (Herbicidal ratio of 90% or more (almost completely withered)) | 5 (Herbicidal ratio of 90% or more (almost completely withered)) | 5 (Herbicidal ratio of 90% or more (almost completely withered)) | 5 (Herbicidal ratio of 90% or more (almost completely withered)) | 5 (Herbicidal ratio of 90% or more (almost completely withered)) | 5 (Herbicidal ratio of 90% or more (almost completely withered)) | 0 (Herbicidal ratio of 5% or lower (almost no effect)) | 5 (Herbicidal ratio of 90% or more (almost completely withered)) | 3 (Herbicidal ratio of 40% or higher and lower than 70%) | 3 (Herbicidal ratio of 40% or higher and lower than 70%) | 5 (Herbicidal ratio of 90% or more (almost completely withered)) | 4 (Herbicidal ratio of 70% or higher and lower than 90%) | 5 (Herbicidal ratio of 90% or more (almost completely withered)) | 5 (Herbicidal ratio of 90% or more (almost completely withered)) | 3 (Herbicidal ratio of 40% or higher and lower than 70%) | 5 (Herbicidal ratio of 90% or more (almost completely withered)) | 
